Laboratory results reported in US9067900B2, “Diaminophenothiazine compounds, a method for preparing same and uses thereof” (PHARMA HYDRO DEVELOPMENT—P.H.D., priority 2007, dated 2015).

How the values were obtained:
[1] = test system: Pseudomonas aeruginosa CIP 103 467; assay: Biocidal activity test according to EN standards (EN 1040, EN 1275); format: cell-based; details: 50 to 100 mg/l in distilled water, contact time 15 to 30 mn
[2] = test system: Legionella pneumophila subsp pneumophila CIP 103 854; format: cell-based; details: 100 mg/l in distilled water, contact time 15 to 30 mn; dichlorhydrate solution
albino rabbits [3] = assay: Eye irritation/corrosion, OCDE 405 classification; format: in vivo; details: 100 mg/l to 1000 mg/l
[4] = test system: Candida albicans IP 48.72; assay: Biocidal activity test according to EN standards (EN 1040, EN 1275); format: cell-based; details: under light
Method: The biocidal tests were carried out according to Directive NF EN 1040. Tests were conducted at the same time in the dark and under white light, corresponding to a moderate sunshine (400 KJ/M2) using an ordinary incandescent or halogen lamp. Some tests may be carried out up to 1.3 mW/Cm^2 […] The color change is all the more fast that the solution is illuminated under white light. The tests are performed in sterile glass flasks according to disinfection test standards. Illumination is a sun light illumination or an artificial light illumination and is compared with tests carried out in the dark (glass material is wrapped with aluminium foil). Biocidal activity tests are carried out according to EN standards, for example EN 1040, EN 1275, on reference microbial strains registered under ATCC and CIP, and validated by an accredited laboratory. […] These tests validate as biocide agents as defined by the European pharmacopoeia if the infectious titer reduction is higher than 5. Tests are carried out under white light versus a control in the dark. In all cases, white light accelerates the biocidal phenomenon, for example the biocidal activity under light requires a 15 min-contact time, as opposed to 30 mn in the dark. It should be noted that the DAP 2,8 series may have a “range effect”, that is to say there is a concentration range that is more efficient as compared to higher concentrations.

[5] = test system: Escherichia coli CIP 54 127; assay: as above; format: cell-based; details: 50 to 100 mg/l in distilled water, contact time 15 to 30 mn
albino rabbits [6] = assay: Skin irritation/corrosion, OCDE 404 classification; format: in vivo; details: 100 mg/l to 1000 mg/l

CN(C)c1ccc2c(c1)Nc1cc(N(C)C)ccc1S2 [Example 1, N,N,N′,N′-tetramethyl-10H-phenothiazine-2,8-diamine]
Infectious titer reduction (log) [1]: >5.5 log | Infectious titer reduction (log) [2]: >5.5 log | irritant or corrosive activity, eyes (albino rabbits [3]): non-irritant | Infectious titer reduction (log) ([4]; 100 mg/l in distilled water, contact time 30 mn): 3.2 log | Infectious titer reduction ([4]; 250 or 500 mg/l, 30 mn of contact): < 2.8 log | Infectious titer reduction (log) [5]: >5.5 log | irritant or corrosive activity, skin (albino rabbits [6]): non-irritant

CCCN(CCC)c1ccc2c(c1)Nc1cc(N3CCN(C)CC3)ccc1S2 [Example 8, [8-(4-Methyl-piperazin-1-yl)-10H-phenothiazin-2-yl]-dipropylamine]
melting point: 122 to 124 °C

CCCCN(CCCC)c1ccc2c(c1)Nc1cc(N3CCN(C)CC3)ccc1S2 [Example 11, N,N-Dibutyl-[8-(4-methylpiperazin-1-yl)-10H-phenothiazin-2-yl]amine]
melting point: 150 to 152 °C

CCCNc1ccc2c(c1)Nc1cc(N(C)C)ccc1S2 [Example 13, N,N-Dimethyl-N′-propyl-10H-phenothiazine-2,8-diamine]
melting point: 158 to 160 °C
